In patent US6562861B1 (priority 1997, dated 2003) one finds IC50 data, which are given here for 20 molecules.

Where a name gives a salt, the structure may show the parent alone.

Assay [1] addresses neuraminidase from the H1N9 strain of influenza (Influenza A virus, UniProt P03472). In words: biochemical. The note with it: neuraminidase enzyme inhibition data (IC50 values) Flu A.
The target of assay [2] is Flu B neuraminidase (Influenza B virus, UniProt P03474). In words: biochemical. Particulars: neuraminidase enzyme inhibition data (IC50 values) Flu B.
Chain of Flu B neuraminidase (P03474 whole entry): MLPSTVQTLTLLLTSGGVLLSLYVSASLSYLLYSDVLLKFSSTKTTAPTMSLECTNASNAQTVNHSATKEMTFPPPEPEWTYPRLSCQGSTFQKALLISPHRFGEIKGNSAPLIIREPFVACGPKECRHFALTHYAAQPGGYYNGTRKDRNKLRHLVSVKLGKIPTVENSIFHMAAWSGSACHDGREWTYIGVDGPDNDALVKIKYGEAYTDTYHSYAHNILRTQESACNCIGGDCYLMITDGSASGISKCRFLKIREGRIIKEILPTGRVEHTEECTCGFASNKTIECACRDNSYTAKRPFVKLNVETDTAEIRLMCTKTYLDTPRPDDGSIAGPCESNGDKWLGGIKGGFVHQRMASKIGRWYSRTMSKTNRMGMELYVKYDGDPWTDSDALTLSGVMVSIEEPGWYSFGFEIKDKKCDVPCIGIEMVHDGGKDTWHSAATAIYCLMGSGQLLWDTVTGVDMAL

Chain of neuraminidase from the H1N9 strain of influenza (P03472 83-470 limits assumed): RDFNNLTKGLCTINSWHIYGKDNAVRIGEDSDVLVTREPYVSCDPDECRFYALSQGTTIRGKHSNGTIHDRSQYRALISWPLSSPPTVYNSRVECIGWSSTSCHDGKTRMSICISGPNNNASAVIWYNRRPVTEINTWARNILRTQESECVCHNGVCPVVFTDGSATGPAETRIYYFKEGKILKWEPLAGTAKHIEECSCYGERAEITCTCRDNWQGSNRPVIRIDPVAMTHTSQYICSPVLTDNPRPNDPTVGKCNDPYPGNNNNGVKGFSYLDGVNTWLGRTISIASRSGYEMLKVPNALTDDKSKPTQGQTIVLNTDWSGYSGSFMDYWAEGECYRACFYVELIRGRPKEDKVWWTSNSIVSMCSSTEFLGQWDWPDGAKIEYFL

Turning to `CCC(CC)C(NC(C)=O)C1CC(C(=O)O)CC1O` (single isomer, unassigned) [Compound 65, (±) t-3-(1′-Acetylamino-2′-ethyl)butyl-t-4-hydroxycyclopentan-r-1-carboxylic Acid], the IC50 in assay [1] and in assay [2] was 1 to 100 µM each time.

With `CCC(CC)C(NC(C)=O)C1CC(C(=O)O)CC1N` (single isomer, unassigned) [Compound 86, (±) t-3-[(1′-Acetylamino-2′-ethyl)butyl]-c-4-aminocyclopentan-r-1-carboxylic Acid], the IC50 in assay [1] and in assay [2] was 1 to 100 µM in each case.

Turning to `CCC(CC)C(NC(C)=O)C1C(N)CC(C(=O)O)C1O` (single isomer, unassigned) [Compound 162, (±)-t-3-(1′-Acetylamino-2′-ethyl)butyl-c-4-amino-t-2-hydroxycyclopentan-r-1-carboxylic Acid], the half-maximal inhibitory concentration (IC50) in assay [1] and in assay [2] was below 1 µM throughout.

On to `CCCC(CCC)C(NC(C)=O)C1C(N)CC(C(=O)O)C1O` (single isomer, unassigned) [Compound 163, (±)-t-3-(1′-Acetylamino-2′-propyl)pentyl-c-4-amino-t-2-hydroxycyclopentan-r-1-carboxylic Acid], for which the IC50 in assay [1] and in assay [2] was below 1 µM throughout.

For the molecule `CCCCC(NC(C)=O)C1C(N)CC(C(=O)O)C1O` (single isomer, unassigned) [Compound 165], the half-inhibitory concentration (IC50) in assay [1] and in assay [2] was 1 to 100 µM in each case.

For `CCC(C)C(NC(C)=O)C1C(N)CC(C(=O)O)C1O` (single isomer, unassigned) [Compound 166, (±)-t-3-(1′-Acetylamino-2′-methyl)butyl-c-4-amino-t-2-hydroxycyclopentan-r-1-carboxylic Acid], the concentration for half-maximal inhibition (IC50) in assay [1] is below 1 µM; in assay [2], 1 to 100 µM.

With `CCC(CC)C(NC(C)=O)C1C(NC(=N)N)CC(C(=O)O)C1O` (single isomer, unassigned) [Compound 179, (±)-t-3-(1′-Acetylamino-2′-ethyl)butyl-c-4-[(amino-imino)methyl]amino-t-2-hydroxycyclopentan-r-1-carboxylic Acid], the IC50 in assay [1] was below 1 µM.

For the molecule `CCC(CC)CC(NC(C)=O)C1C(NC(=N)N)CC(C(=O)O)C1O` (single isomer, unassigned) [Compound 180, (±)-t-3-(1′-Acetylamino-3′-ethyl)pentyl-c-4-[(amino-imino)methyl]amino-t-2-hydroxycyclopentan-r-1-carboxylic Acid], the half-inhibitory concentration (IC50) in assay [1] and in assay [2] was below 1 µM in each case.

For `CCCCC(NC(C)=O)C1C(NC(=N)N)CC(C(=O)O)C1O` (single isomer, unassigned) [Compound 181], the IC50 in assay [1] and in assay [2] was below 1 µM throughout.

Regarding `CCC(CC)C(NC(C)=O)C1CC(C(=O)O)CC1N` (single isomer, unassigned) [Compound 200, (±)-t-3-(1′-Acetylamino-2′-ethyl)butyl-c-4-aminocyclopentan-1-carboxylic Acid], the IC50 in assay [1] and in assay [2] was below 1 µM in each case.

`CCC(CC)C(NC(C)=O)C1CC(C(=O)O)CC1NC(=N)N` (single isomer, unassigned) [Compound 211, (±)-t-3-(1′-Acetylamino-2′-ethyl)butyl-c-4-[(amino-imino)methyl]-aminocyclopentan-r-1-carboxylic Acid] yielded a 50% inhibitory concentration (IC50) in assay [1] below 1 µM.

In the case of `CCC(CC)C(NC(C)=O)[C@@H]1[C@H](O)[C@@H](C(=O)O)C[C@H]1N` (stereo partly drawn) [Compound 160, (1S,2S,3R,4R,1′S)-(−)-3-(1′-Acetylamino-2′-ethyl)butyl-4-amino-2-hydroxycyclopentan-1-carboxylic Acid], the IC50 in assay [1] and in assay [2] was below 1 µM each time.

`CCC(CC)C(NC(C)=O)[C@@H]1[C@H](O)[C@@H](C(=O)O)C[C@H]1NC(=N)N` (stereo partly drawn) [Compound 178, (1S,2S,3R,4R,1′S)-(−)-3-(1′-Acetylamino-2′-ethyl)butyl-4-[(aminoimino)methyl]amino-2-hydroxycyclopentan-1-carboxylic Acid]: the half-maximal inhibitory concentration (IC50) in assay [1] was below 1 µM.

Turning to `CCC(CC)C(NC(C)=O)[C@@H]1[C@H](O)[C@@H](C(=O)O)C[C@H]1NC(=N)NC` (stereo partly drawn) [Compound 182, (1S,2S,3R,4R,1′S)-(−)-3-(1′-Acetylamino-2′-ethyl)butyl-4-[(N-methylamino-imino)methyl]amino-2-hydroxycyclopentan-1-carboxylic Acid], the concentration for half-maximal inhibition (IC50) in assay [1] and in assay [2] was below 1 µM each time.

Consider `CCCC(CCC)C(NC(C)=O)[C@@H]1[C@H](O)[C@@H](C(=O)O)C[C@H]1NC(=N)N` (stereo partly drawn) [Compound 183, (1S,2S,3R,4R,1′S)-(−)-3-(1′-Acetylamino-2′-propyl)pentyl-4-[(amino-imino)methyl]amino-2-hydroxycyclopentan-1-carboxylic Acid], for which the IC50 in assay [1] and in assay [2] was below 1 µM in each case.

For the molecule `CCC(CC)C(NC(C)=O)[C@@H]1C[C@@H](C(=O)O)C[C@H]1N` (stereo partly drawn) [Compound 199, (1R,3R,4R,1′S)-(−)-3-(1′-Acetylamino-2′-ethyl)butyl-4-aminocyclopentan-1-carboxylic Acid], the half-inhibitory concentration (IC50) in assay [1] and in assay [2] was below 1 µM in each case.

In turn, `CCC(CC)C(NC(C)=O)[C@@H]1C[C@@H](C(=O)O)C[C@H]1NC(=N)N` (stereo partly drawn) [Compound 209, (1R,3R,4R,1′S)-(−)-3-(1′-Acetylamino-2′-ethyl)butyl-4-(aminoimino)methyl-aminocyclopentan-1-carboxylic Acid] returned an IC50 in assay [1] below 1 µM.

In the case of `CCCC(CCC)C(NC(C)=O)[C@@H]1C[C@@H](C(=O)O)C[C@H]1NC(=N)N` (stereo partly drawn) [Compound 210, (1R,3R,4R,1′S)-(−)-3-(1′-Acetylamino-2′-propyl)pentyl-4-[(amino-imino)methyl]aminocyclopentan-1-carboxylic Acid], the IC50 in assay [1] and in assay [2] was below 1 µM throughout.

Consider `CCC(CC)C(NC(C)=O)[C@@H]1C[C@@H](C(=O)O)C[C@H]1NC(=N)NC` (stereo partly drawn) [Compound 212, (1R,3R,4R,1′S)-(−)-3-(1′-Acetylamino-2′-ethyl)butyl-4-[(N-methylamino-imino)methyl]aminoclopentan-1-carboxylic Acid], for which the IC50 in assay [1] and in assay [2] was below 1 µM in each case.

On to `CCC(CC)C(NC(C)=O)[C@@H]1C=C(C(=O)O)C[C@H]1NC(=N)N` (stereo partly drawn) [Compound 219, (3R,4R,1′S)-(−)-3-(1′-Acetylamino-2′-ethyl)butyl-4-[(amino-imino)methyl]amino-cyclopent-1-en-1-carboxylic Acid Hydrochloride], for which the IC50 in assay [1] and in assay [2] was below 1 µM each time.

Usually IC50 stands for the midpoint of a concentration-inhibition curve.
